Results as given in publication PMC2248166, “Quantitative peptide binding motifs for 19 human and mouse MHC class I molecules derived using positional scanning combinatorial peptide libraries” (Immunome Research, 2008).
Where a SMILES comes first, the peptide text is derived from it.

Molecular target: HLA B*1501 (Homo sapiens, UniProt P01889, A329T/A93T/A95T/C349S/D201E/D98Y/E187L/E204Q/E69M/E70A/K202T/N87E/Q94N/R155S/R180W/S121R/S35A/S48A/V306I/V36M/Y140S/Y91S)
Test: biochemical
Assay type: binding

Row | SMILES | IC50 [nM]
1 | CC[C@H](C)[C@H](N)C(=O)N[C@@H](CO)C(=O)N[C@H](C(=O)N[C@@H](CCCCN)C(=O)N[C@@H](CC(C)C)C(=O)N[C@@H](CO)C(=O)N[C@@H](CS)C(=O)N[C@@H](Cc1c[nH]cn1)C(=O)N[C@@H](Cc1ccc(O)cc1)C(=O)O)[C@@H](C)O [3102.0872] (H-ISTKLSCHY-OH) | 18
2 | CC(C)C[C@H](NC(=O)[C@H](CCCCN)NC(=O)[C@H](CS)NC(=O)[C@H](CC(C)C)NC(=O)[C@@H](N)CO)C(=O)N[C@@H](CC(N)=O)C(=O)N[C@@H](CC(N)=O)C(=O)N[C@H](C(=O)N[C@@H](Cc1ccccc1)C(=O)O)C(C)C [3102.0874] (H-SLCKLNNVF-OH) | 16
3 | CC[C@H](C)[C@H](NC(=O)[C@H](C)NC(=O)[C@H](CC(C)C)NC(=O)[C@@H](N)CC(C)C)C(=O)N[C@@H](CO)C(=O)N[C@@H](C)C(=O)N[C@H](C(=O)N[C@@H](Cc1ccc(O)cc1)C(=O)N[C@@H](Cc1ccccc1)C(=O)O)C(C)C [3102.0875] (H-LLAISAVYF-OH) | 32
4 | CC[C@H](C)[C@H](NC(=O)[C@H](CC(N)=O)NC(=O)[C@@H]1CCCN1C(=O)[C@H](CS)NC(=O)[C@@H](NC(=O)[C@@H](N)CCSC)C(C)C)C(=O)N[C@@H](CC(N)=O)C(=O)N[C@@H](C)C(=O)N[C@@H](Cc1ccccc1)C(=O)O [3102.0876] (H-MVCPNINAF-OH) | 22
5 | CSCC[C@H](NC(=O)[C@H](Cc1ccc(O)cc1)NC(=O)[C@H](CO)NC(=O)[C@H](CCC(=O)O)NC(=O)[C@H](Cc1ccc(O)cc1)NC(=O)[C@H](CS)NC(=O)[C@H](Cc1c[nH]cn1)NC(=O)[C@H](CC(C)C)NC(=O)[C@@H](N)CCSC)C(=O)O [3102.0879] (H-MLHCYESYM-OH) | 97
6 | CSCC[C@H](NC(=O)[C@H](Cc1c[nH]cn1)NC(=O)[C@H](CS)NC(=O)[C@@H](NC(=O)[C@H](CC(N)=O)NC(=O)[C@H](CC(N)=O)NC(=O)[C@@H](NC(=O)[C@H](CO)NC(=O)[C@@H](N)C(C)C)C(C)C)C(C)C)C(=O)O [3102.0880] (H-VSVNNVCHM-OH) | 14
7 | CSCC[C@H](NC(=O)[C@@H](N)C(C)C)C(=O)N[C@H](C(=O)N[C@@H](CCCCN)C(=O)N[C@@H](Cc1c[nH]c2ccccc12)C(=O)N[C@@H](CS)C(=O)N[C@@H](C)C(=O)N1CCC[C@H]1C(=O)N[C@@H](Cc1ccccc1)C(=O)O)[C@@H](C)O [3102.0886] (H-VMTKWCAPF-OH) | 1.9
8 | CSCC[C@H](NC(=O)[C@H](C)NC(=O)[C@H](CCCCN)NC(=O)[C@H](Cc1ccccc1)NC(=O)[C@@H](NC(=O)[C@@H](N)CC(N)=O)C(C)C)C(=O)N[C@@H](CCC(=O)O)C(=O)N[C@H](C(=O)N[C@@H](Cc1ccccc1)C(=O)O)[C@@H](C)O [3102.0887] (H-NVFKAMETF-OH) | 23
9 | CC[C@H](C)[C@H](NC(=O)[C@H](CCC(=O)O)NC(=O)[C@@H](N)CO)C(=O)N[C@@H](CCCNC(=N)N)C(=O)N[C@@H](Cc1c[nH]c2ccccc12)C(=O)N[C@@H](CCC(=O)O)C(=O)N[C@@H](CCC(=O)O)C(=O)N[C@@H](CO)C(=O)N[C@@H](Cc1ccccc1)C(=O)O [3102.0890] (H-SEIRWEESF-OH) | 47
10 | CC[C@H](C)[C@H](N)C(=O)N[C@H](C(=O)N[C@H](C(=O)N1CCC[C@H]1C(=O)N[C@@H](Cc1ccccc1)C(=O)N[C@H](C(=O)N[C@@H](C)C(=O)N[C@@H](Cc1ccc(O)cc1)C(=O)N[C@@H](Cc1ccccc1)C(=O)O)[C@@H](C)CC)[C@@H](C)CC)[C@@H](C)CC [3102.0892] (H-IIIPFIAYF-OH) | 1.6
11 | CSCC[C@H](N)C(=O)N[C@H](C(=O)N[C@@H](Cc1ccc(O)cc1)C(=O)N[C@@H](CCCCN)C(=O)N[C@@H](CC(C)C)C(=O)N[C@H](C(=O)N[C@@H](CC(C)C)C(=O)N[C@@H](CC(C)C)C(=O)N[C@@H](Cc1ccccc1)C(=O)O)C(C)C)C(C)C [3102.0893] (H-MVYKLVLLF-OH) | 71
12 | CC[C@H](C)[C@H](NC(=O)[C@H](Cc1c[nH]cn1)NC(=O)[C@H](CC(=O)O)NC(=O)[C@H](Cc1c[nH]cn1)NC(=O)[C@H](CO)NC(=O)[C@@H](N)Cc1ccccc1)C(=O)NCC(=O)N[C@@H](Cc1c[nH]cn1)C(=O)NCC(=O)O [3102.0897] (H-FSHDHIGHG-OH) | 32
13 | CC[C@H](C)[C@H](NC(=O)[C@H](CCSC)NC(=O)[C@@H](N)CCSC)C(=O)N[C@@H](CC(=O)O)C(=O)N[C@@H](CC(=O)O)C(=O)N[C@@H](Cc1ccccc1)C(=O)NCC(=O)N[C@H](C(=O)N[C@@H](C)C(=O)O)[C@@H](C)O [3102.0898] (H-MMIDDFGTA-OH) | 7.6
14 | CC[C@H](C)[C@H](NC(=O)[C@@H](N)CC(C)C)C(=O)N[C@@H](CC(N)=O)C(=O)N[C@@H](CC(N)=O)C(=O)NCC(=O)N[C@@H](CCCCN)C(=O)N[C@@H](CS)C(=O)N[C@H](C(=O)N[C@@H](Cc1ccccc1)C(=O)O)[C@@H](C)O [3102.0899] (H-LINNGKCTF-OH) | 62
15 | CC[C@H](C)[C@H](N)C(=O)N[C@@H](CC(C)C)C(=O)N[C@@H](CCCCN)C(=O)N[C@@H](CCCCN)C(=O)N[C@@H](CC(C)C)C(=O)N[C@@H](CO)C(=O)N1CCC[C@H]1C(=O)N[C@@H](Cc1ccc(O)cc1)C(=O)N[C@@H](Cc1ccccc1)C(=O)O [3102.0903] (H-ILKKLSPYF-OH) | 1.2
16 | CC[C@H](C)[C@H](NC(=O)[C@H](C)NC(=O)[C@H](CC(N)=O)NC(=O)[C@H](Cc1ccccc1)NC(=O)[C@H](CC(C)C)NC(=O)[C@@H](N)Cc1ccc(O)cc1)C(=O)N[C@@H](CCC(=O)O)C(=O)N[C@H](C(=O)N[C@@H](CCSC)C(=O)O)[C@@H](C)O [3102.0905] (H-YLFNAIETM-OH) | 1.4
17 | CSCC[C@H](N)C(=O)N[C@@H](Cc1ccc(O)cc1)C(=O)N[C@@H](CCCCN)C(=O)N[C@@H](CCCCN)C(=O)N[C@@H](C)C(=O)N[C@@H](CCC(=O)O)C(=O)N[C@@H](C)C(=O)N[C@@H](CO)C(=O)N[C@@H](Cc1ccccc1)C(=O)O [3102.0906] (H-MYKKAEASF-OH) | 69
18 | CC[C@H](C)[C@H](NC(=O)[C@H](Cc1ccccc1)NC(=O)[C@@H](N)Cc1ccc(O)cc1)C(=O)N[C@@H](CCCCN)C(=O)N[C@@H](Cc1c[nH]cn1)C(=O)N[C@H](C(=O)N[C@@H](CC(C)C)C(=O)N[C@@H](C)C(=O)N[C@@H](Cc1ccccc1)C(=O)O)C(C)C [3102.0907] (H-YFIKHVLAF-OH) | 2.5
19 | CC[C@H](C)[C@H](NC(=O)[C@H](CCC(=O)O)NC(=O)[C@H](CS)NC(=O)[C@H](CCCNC(=N)N)NC(=O)[C@@H](NC(=O)[C@@H](N)CCCCN)[C@@H](C)CC)C(=O)N[C@H](C(=O)N[C@@H](CO)C(=O)N[C@@H](Cc1ccccc1)C(=O)O)[C@@H](C)O [3102.0909] (H-KIRCEITSF-OH) | 4.3
20 | CC[C@H](C)[C@H](NC(=O)[C@@H](N)CCC(=O)O)C(=O)N[C@@H](C)C(=O)N[C@@H](CCCCN)C(=O)N[C@@H](Cc1ccc(O)cc1)C(=O)NCC(=O)N[C@@H](Cc1c[nH]cn1)C(=O)N[C@@H](CO)C(=O)N[C@@H](Cc1ccccc1)C(=O)O [3102.0911] (H-EIAKYGHSF-OH) | 58
21 | CSCC[C@H](NC(=O)[C@@H](N)CCCNC(=N)N)C(=O)N[C@@H](Cc1ccccc1)C(=O)N[C@@H](Cc1c[nH]cn1)C(=O)N[C@@H](Cc1ccccc1)C(=O)N[C@@H](Cc1ccccc1)C(=O)N[C@@H](CCC(=O)O)C(=O)N[C@@H](Cc1c[nH]cn1)C(=O)N[C@@H](CCC(=O)O)C(=O)O [3102.0915] (H-RMFHFFEHE-OH) | 67
22 | CC[C@H](C)[C@H](NC(=O)[C@@H]1CCCN1C(=O)[C@H](CCC(=O)O)NC(=O)[C@H](CC(N)=O)NC(=O)[C@H](CO)NC(=O)[C@H](CC(=O)O)NC(=O)[C@H](Cc1ccccc1)NC(=O)[C@H](CC(C)C)NC(=O)[C@@H](N)CC(C)C)C(=O)O [3102.0916] (H-LLFDSNEPI-OH) | 16
23 | CC[C@H](C)[C@H](NC(=O)[C@H](C)NC(=O)[C@@H](N)Cc1ccccc1)C(=O)N[C@@H](CO)C(=O)N[C@@H](Cc1ccc(O)cc1)C(=O)N[C@@H](CS)C(=O)N[C@@H](CCCNC(=N)N)C(=O)N[C@@H](C)C(=O)N[C@@H](Cc1ccccc1)C(=O)O [3102.0920] (H-FAISYCRAF-OH) | 76
24 | CSCC[C@H](NC(=O)[C@H](CCCNC(=N)N)NC(=O)[C@H](CS)NC(=O)[C@@H]1CCCN1C(=O)[C@H](CO)NC(=O)[C@@H](N)CCSC)C(=O)N[C@@H](Cc1ccccc1)C(=O)N[C@@H](CO)C(=O)N[C@@H](Cc1ccccc1)C(=O)O [3102.0921] (H-MSPCRMFSF-OH) | 17
25 | CC(C)C[C@H](NC(=O)[C@H](CO)NC(=O)[C@H](CCCCN)NC(=O)[C@H](CC(C)C)NC(=O)[C@@H](N)CO)C(=O)N[C@@H](Cc1ccc(O)cc1)C(=O)N[C@@H](CCC(=O)O)C(=O)N[C@@H](C)C(=O)N[C@@H](Cc1ccccc1)C(=O)O [3102.0923] (H-SLKSLYEAF-OH) | 20
26 | CC(C)C[C@H](NC(=O)[C@H](CS)NC(=O)[C@H](CCCCN)NC(=O)[C@H](CCCCN)NC(=O)[C@H](Cc1ccccc1)NC(=O)[C@H](CO)NC(=O)[C@@H](N)Cc1ccccc1)C(=O)N[C@H](C(=O)N[C@@H](Cc1ccc(O)cc1)C(=O)O)C(C)C [3102.0925] (H-FSFKKCLVY-OH) | 4.7
27 | CC[C@H](C)[C@H](NC(=O)[C@H](CO)NC(=O)[C@@H](N)CCCNC(=N)N)C(=O)N[C@@H](CO)C(=O)N[C@@H](CCCNC(=N)N)C(=O)N[C@H](C(=O)N[C@@H](CCC(=O)O)C(=O)N[C@@H](CC(N)=O)C(=O)N[C@@H](Cc1ccccc1)C(=O)O)[C@@H](C)O [3102.0929] (H-RSISRTENF-OH) | 4.8
28 | CC[C@H](C)[C@H](N)C(=O)N[C@@H](CO)C(=O)N[C@@H](CCCCN)C(=O)N[C@@H](CC(N)=O)C(=O)N[C@@H](C)C(=O)N[C@@H](Cc1ccccc1)C(=O)N[C@@H](CO)C(=O)N[C@@H](CS)C(=O)N[C@@H](CCSC)C(=O)O [3102.0935] (H-ISKNAFSCM-OH) | 78
29 | CSCC[C@H](NC(=O)[C@H](CCC(N)=O)NC(=O)[C@H](CO)NC(=O)[C@H](CO)NC(=O)[C@@H](N)CC(C)C)C(=O)N[C@H](C(=O)N[C@@H](CO)C(=O)N[C@H](C(=O)N[C@@H](Cc1ccccc1)C(=O)O)[C@@H](C)O)[C@@H](C)O [3102.0940] (H-LSSQMTSTF-OH) | 4
